Source: US20240279233A1, “MACROCYCLIC TAK1 INHIBITORS” (Aqilion AB, priority 2021, published 2024)
Converted amounts (≈) assume the structure as drawn. Where two headings read alike, the source gives them in different places.

Assays:
[1] = from COC(=O)c1cccc2nc(NC(=O)c3cccc(C(=O)O)c3)n(CCCCCN)c12; amide bond; 14-membered ring; HATU/DIEA; 16.0 h; 2 steps
[2] = amide bond, 14-membered ring
[3] = biological target: human recombinant TAK1-TAB1 Kinase (TAK1 (1-303) and TAB1 (437-end)) (Homo sapiens (Human), UniProt O43318); assay: TAK1 biochemical ADP-Glo kinase assay; conditions: MBP substrate
Outline: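 Inhibition of human recombinant TAK1-TAB1 kinase was measured with a Promega ADP-Glo luminescence assay in 384-well plates. Compounds in 5% DMSO were pre-incubated 10 min with 2 μl TAK1-TAB1 (7.5 ng/μl) in buffer of Tris pH 7.5, MgCl2, DTT and BSA. MBP substrate and ATP were then added for 1 hour at room temperature. ADP-Glo reagent and kinase detection substrate followed, luminescence was read on an Envision, and IC50 came from non-linear regression.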

[4] = system: phosphorylated p38 (TAK1 activity) in THP-1 cells; assay: Cell-based p38 phosphorylation assay (Western blot); conditions: for IC50: read-out: IC50 (nM) in phospho-p38 cell assay
Protocol: The cellular activity of example compounds 2, 3 and 9 and the comparative example (i.e. takinib) for inhibiting TAK1 activity was evaluated using an in vitro functional cell assay.
THP-1 cells were incubated at 37° C. in 5% CO2. THP-1 cells were cultured in RPMI 1640, 10% FBS, 1% Penicillin-Streptomycin.
THP-1 cells were treated with 100 nM phorbol 12-myristate 13-acetate (PMA) to induce macrophage differentiation and seeded at the density of 1×10^6 cells/well (2 ml/well in a 6-well plate) for 72 hours. The cell culture media was then replaced with PMA-free media and incubated for further 48 hours. Test compounds were prepared as 200×final assay concentration stocks in DMSO (final concentrations in the assay were 10-0.03 μM in 0.5% DMSO, details provided below). Following THP-1 cell differentiation, cells were treated with different concentrations of the control compound NG25 (CAS No.:1315355-93-1, Tan L, et al. J Med Chem. 2015, 58(1), 183-96) or test compounds (10 μl/well) for 30 minutes followed by 200 ng/ml LPS for 30 minutes.
Test items were kept as 10 mM stock solutions in 100% DMSO. The serial dilution of compounds was prepared as 200× serial dilutions of desired final concentration in […] to reach 0.5% DMSO working solution (see Table 3 below).
Dilution series of compounds from 10 μM final highest concentration to 0.03 μM final low concentration were first made in DMSO (see Table 3), 10 μl of each dilution was mixed into 2 ml of cell cultures (0.5% DMSO per well).
10 μl of DMSO was added to the control. All plates were incubated at 37° C., 5% CO2 for 30 minutes and LPS was added to a final concentration of 200 ng/ml.
For Western blot analysis, cells were lysed (50 mM Tris, 150 mM NaCl, 1 mM EDTA, 1% Triton-X100, 1 mM DTT, complete protease and PhosStop phosphatase inhibitor) after indicated treatment and run on NuPAGE Bis-Tris gel 4-12% gradient (Invitrogen). Following transfer to PVDF membrane and blocking in 5% BSA in PBST, membranes were incubated with primary antibody overnight (specific for phosphorylated p38; Cell Signaling, 1:1,000 dilution). After incubation with species-specific secondary antibodies for 1 hour at room temperature, the membranes were visualized with the ECL SuperSignal™ West Pico PLUS Chemiluminescent Substrate (Thermo Scientific). The images were captured with iBright Western Blot Imaging Systems (Invitrogen) and quantified with ImageJ software (Java-based image processing program developed at the National Institutes of Health and the Laboratory for Optical and Computational Instrumentation). Anti-β-actin antibodies were used as the loading control for whole-cell extracts in all samples (anti-β actin; Sigma-Aldrich, 1:5000 dilution, 1 hour incubation).
For immunoblotting, cells were lysed directly in six-well plates by incubating for 30 min at 4° C. in 60 μl Triton lysis buffer. The lysates were centrifuged for 15 minutes at 13,000×g at 4° C. Equal amount of protein from each supernatants were resuspended with 5× sample buffer. Samples were boiled for 10 minutes and then resolved by 4-12% SDS-PAGE (100 V). Proteins were transferred from gel to PVDF membranes ([…] pore size) following the recommended setting (90 minutes, 85 V). […]

[5] = Solubility assay in phosphate buffer; conditions: phosphate buffer, pH 7.4, aqueous buffer, kinetic from dmso stock, Solubility (μM), phosphate buffer 100 mM, pH 7.4, room temperature, 20-24 h, LC-UV
Protocol: (§1) The aqueous solubility of selected example compounds was determined as follows; 6 μL of DMSO stock solution of the selected example was added to 594 μL phosphate buffer (100 mM, pH 7.4). The resulting mixture was equilibrated over night (20-24 h, Alligator Shaker, room temperature). The mixture was then filtered (Millex LH 0.45 μm) and the concentration/solubility was determined by LC-UV quantification.

[6] = pH 7.4
Protocol: as §1

[7] = 10 μM ATP, read-out: TAK1 Mean IC50 (nM) @ 10 μM ATP
[8] = Homo sapiens, 0.5 h, PMA-differentiated THP-1 cells, compound 30 minutes then 200 ng/ml LPS 30 minutes
[9] = PMA-differentiated THP-1 cells, compound 30 minutes then 200 ng/ml LPS 30 minutes

Sequence of human recombinant TAK1-TAB1 Kinase (TAK1 (1-303) and TAB1 (437-end)) (O43318 other isoform, or with tags, fused parts or gaps): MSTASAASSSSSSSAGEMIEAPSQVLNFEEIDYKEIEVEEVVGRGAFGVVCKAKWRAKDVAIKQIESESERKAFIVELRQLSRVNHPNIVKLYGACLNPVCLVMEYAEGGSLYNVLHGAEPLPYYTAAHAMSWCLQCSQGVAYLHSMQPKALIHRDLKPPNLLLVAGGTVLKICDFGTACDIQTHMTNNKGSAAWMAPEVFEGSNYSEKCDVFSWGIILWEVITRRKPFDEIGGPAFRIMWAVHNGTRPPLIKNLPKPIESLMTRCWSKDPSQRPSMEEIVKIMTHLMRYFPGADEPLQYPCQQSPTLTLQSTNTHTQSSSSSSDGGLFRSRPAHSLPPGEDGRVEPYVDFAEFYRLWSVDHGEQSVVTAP

SMILES	IC50 [3, 7] [nM]	solubility [5] [µM]	solubility [6] [µM]	other results
COC(=O)c1cccc2nc3n(c12)CCCCCNC(=O)c1cccc(c1)C(=O)N3				ring closure, crude yield [1]: 76%
O=C1NCCCCCn2c(nc3ccccc32)NC(=O)c2cccc1c2 [Example 2, 1^1H-2,6-diaza-1(2,1)-benzo[d]imidazola-4(1,3)-benzenacycloundecaphane-3,5-dione]	3	0.5 (≈ 0.174 µg/mL)		ring closure, isolated yield ([2]; from NCCCCCn1c(NC(=O)c2cccc(C(=O)O)c2)nc2ccccc21, HATU/DIEA, DMF, 51.0 mM, 25.0 °C, 16.0 h): 2%; IC50 [4, 8]: 200 nM
CN1CCN(Cc2ccc3c(c2)nc2n3CCCCCNC(=O)c3cccc(c3)C(=O)N2)CC1 [Example 3, 1^5-((4-methylpiperazin-1-yl)methyl)-1^1H-2,6-diaza-1(2,1)-benzo[d]imidazola-4(1,3)-benzenacycloundecaphane-3,5-dione]	1	31.5 (≈ 14.5 µg/mL)		ring closure, isolated yield ([2]; from CN1CCN(Cc2ccc3c(c2)nc(NC(=O)c2cccc(C(=O)O)c2)n3CCCCCN)CC1, HATU/DIEA, DMF, 2.4 mM, 1.17 h): 13%; IC50 [4, 8]: 4.5 nM
COC(=O)c1cccc2nc3n(c12)C(C)CCCCNC(=O)c1cccc(c1)C(=O)N3 (stereo not shown) [Example 7, methyl 11-methyl-3,5-dioxo-1^1H-2,6-diaza-1(2,1)-benzo[d]imidazola-4(1,3)-benzenacycloundecaphane-1^7-carboxylate]	4		0.9 (≈ 0.378 µg/mL)	ring closure, isolated yield ([2]; from COC(=O)c1cccc2nc(NC(=O)c3cccc(C(=O)O)c3)n(C(C)CCCCN)c12, HATU/TEA, dioxane, 2.2 mM, 25.0 °C, 16.0 h, 2 steps): 21%
CC1CCCCNC(=O)c2cccc(c2)C(=O)Nc2nc3cccc(C(=O)N4CCN(C(=O)OC(C)(C)C)CC4)c3n21 (stereo not shown) [Example 9, tert-butyl 4-(11-methyl-3,5-dioxo-1^1H-2,6-diaza-1(2,1)-benzo[d]imidazola-4(1,3)-benzenacycloundecaphane-1^7-carbonyl)piperazine-1-carboxylate]	1		30.9 (≈ 17.8 µg/mL)	IC50 [4, 9]: 600 nM; potency and efficacy compared with Comparative Example 1 (takinib) ([4]; THP-1 cells, LPS, phospho-p38): greater
O=C1NCCCCCn2c(nc3cccc(C(=O)O)c32)NC(=O)c2cccc1c2 [Example 18, (E)-3,5-dioxo-1^2,1^3-dihydro-1^1H-2,6-diaza-1(2,1)-benzo[d]imidazola-4(1,3)-benzenacycloundecaphane-1^7-carboxylic acid]	9		95.0 (≈ 37.3 µg/mL)	
CCCn1c(NC(=O)c2cccc(C(N)=O)c2)nc2ccccc21 [takinib, N-(1-propyl-1H-benzo[d]imidazol-2-yl)isophthalamide, reference compound]	17	0.9 (≈ 0.29 µg/mL)		IC50 ([3]; 1 mM ATP, read-out: TAK1 Mean IC50 (nM) @ 1 mM ATP): 280 nM; IC50 (nM) in phospho-p38 cell assay [4, 9]: inactive
